Reference: patent US20080219977A1, “Combinations Comprising Gemcitabine and Tyrosine Kinase Inhibitors for the Treatment of Pancreatic Cancer” (priority 2005, published 2008)
Marks after values point to notes of the source that are not given here.

Experiments:
[1] = tested on: L3.6pl human pancreatic cancer cells; test: Therapy of established L3.6pl human pancreatic carcinoma tumors growing in the pancreas of athymic nude mice (tumor weight); assay type: in vivo; conditions: for Tumor weight (g) Median: pancreatic tumor, AEE788 50 mg/kg oral 3x/week, STI571 50 mg/kg oral daily, gemcitabine 50 mg/kg i.p. twice weekly, 4 weeks, killed day 49, n=10
Description: Animals and Orthotopic Implantation of Tumor Cells. Male athymic nude mice (NCI-nu) are purchased from the Animal Production Area of the National Cancer Institute Frederick Cancer Research and Development Center (Frederick, Md.). The mice are housed and maintained under specific pathogen-free conditions. The mice are used when they are 8 to 12 weeks old. To produce pancreatic tumors, L3.6pl cells are harvested from subconfluent cultures by a brief exposure to 0.25% trypsin and 0.02% EDTA. Trypsinization is stopped with medium containing 10% FBS, and the cells are washed once in serum-free medium and resuspended in Hanks' balanced salt solution (HBSS). Only suspensions consisting of single cells with greater than 90% viability are used for injection into the pancreas of nude mice as described previously (Hwang et al. in Clin Cancer Res 2003; 9:6534-44). Treatment of Established Human Pancreatic Carcinoma Tumors Growing in the Pancreas of Athymic Nude Mice. Twenty-one days after the intra-pancreatic injection of 0.5×10^6 viable L3.6pl cells in 50 μl HBSS, the pancreatic tumors reach the size of 5-6-mm. […] All mice are treated for 4 weeks and killed on day 49 of the experiment. Necropsy Procedures and Histological Studies. […] Tumors growing in the pancreas are excised and weighed. For immunohistochemical staining procedures, one part of the tumor tissue is fixed in formalin and embedded in paraffin and the other is embedded in OCT compound (Miles, Inc., Elkhart, Ind.), rapidly frozen in liquid nitrogen, and stored at −70° C. Statistical Analysis. Body weight, tumor weight, PCNA-positive cells, mean vessel density (CD31/PECAM-1), and TUNEL-positive cells are compared using the Mann-Whitney U test. Survival analysis is computed by the Kaplan-Meier method and compared by the Log rank test.

Endothelial cells = test: Mean vessel density (CD31/PECAM-1) in L3.6pl tumors; assay type: in vivo, nude mice; conditions: Median ± S.D., microvessels in 10 random 0.159-mm^2 fields at ×100
Experimental: (§1) IHC Determination of Proliferating Cell Nuclear Antigen (PCNA), CD31/PECAM-1 (Endothelial Cells) and TUNEL (Apoptosis). Paraffin-embedded tissues are used for IHC identification of proliferating cell nuclear antigen (PCNA). Frozen tissues used for identification of CD31/PECAM-1 are sectioned (8-10 μm), mounted on positively charged slides, and air-dried for 30 min. Frozen sections are fixed in cold acetone (5 min), in acetone/chloroform (v/v; 5 min), and again in acetone (5 min), and washed with PBS. IHC procedures are performed as described previously (Hwang et al. in Clin Cancer Res 2003; 9:6534-44). Control samples exposed to a secondary antibody alone show no specific staining. […] Statistical Analysis. Body weight, tumor weight, PCNA-positive cells, mean vessel density (CD31/PECAM-1), and TUNEL-positive cells are compared using the Mann-Whitney U test. Survival analysis is computed by the Kaplan-Meier method and compared by the Log rank test.

[2] = tested on: EGF, VEGF, PDGF-BB, EGFR, VEGFR, and PDGFR; test: IHC expression level of growth factors and receptors in L3.6pl pancreatic tumors; assay type: in vivo, human; conditions: IHC of pancreatic tumors from treated mice
Description: Immunohistochemical (IHC) Analysis to Detect EGF, VEGF, PDGF-BB, EGFR, VEGFR, PDGFRβ, pEGFR, pVEGFR, pPDGF-R in Pancreatic Tumors. Paraffin-embedded pancreatic tumors of mice from all treatment groups are immunostained to evaluate the expression of EGF, VEGF, PDGF-BB, EGFR, VEGFR, PDGFRβ, phosphorylated (p)EGFR, pVEGFR, and pPDGFRβ. The sections are deparaffinized in xylene, dehydrated with alcohol and rehydrated in PBS. Endogenous peroxidase is blocked with 3% hydrogen peroxide in PBS. Samples are exposed to protein block (5% normal horse serum, 1% normal goat serum in PBS) and incubated overnight at 4° C. with each primary antibody at the appropriate dilution. After 1 h incubation at room temperature with peroxidase-conjugated secondary antibody, positive reaction is detected by exposure to stable 3,3′-diaminobenzidine (DAB) (Phoenix Biotechnologies, Huntsville, Ala.). Slides are counterstained with Gill's #3 hematoxylin. Sections stained for immunoperoxidase or hematoxylin and eosin are examined in a microscope equipped with a three-chip-charged coupled device (CCD) color video camera. Digital images are captured using Optimas Image Analysis software (Media Cybernetics, Md.).

[3] = tested on: L3.6pl human pancreatic cancer cells; test: Cell proliferation (PCNA) IHC in L3.6pl tumors; assay type: in vivo; conditions: Median ± S.D., positive cells in 10 random 0.159-mm^2 fields at ×100
Experimental: as §1, with “9:6534-44).” for “9:6534-44). Control samples exposed to a secondary antibody alone show no specific staining.”

[4] = tested on: tumor-associated endothelial cells; test: CD31/TUNEL fluorescent double labeling, apoptosis of tumor-associated endothelial cells; assay type: in vivo, nude mice; conditions: Median ± S.D.; ratio of apoptotic endothelial cells to total endothelial cells
Experimental: Double Immunofluorescence Staining for CD31/PECAM-1 and EGFR, pEGFR, VEGFR, pVEGFR, PDGFRβ, pPDGFRβ, Pericytes (desmin-positive cells), and TUNEL. Frozen sections of pancreatic tumors are mounted on slides and fixed. Immunofluorescence for CD31 is performed using Alexa594 conjugated secondary antibody, and samples are again blocked briefly in a blocking solution (5% normal horse serum and 1% normal goat serum in PBS) as described above and incubated with antibody against human EGFR, pEGFR, VEGFR, pVEGFR, PDGFRβ, pPDGFRβ, or desmin at 4° C. overnight. After washes and blocking with blocking solution, samples are incubated with Alexa488 conjugated secondary antibody. Endothelial cells are identified by red fluorescence, and EGF-R, pEGFR, VEGFR, pVEGFR, PDGFRβ, pPDGFRβ and desmin positive cells (pericytes) are identified by green fluorescence. The presence of growth factor receptors and phosphorylated receptors on endothelial cells are detected by colocalization of red and green fluorescence, which appeared yellow. TUNEL-positive apoptotic cells are detected by localized green fluorescence within cell nuclei, and endothelial cells are identified by red fluorescence. Apoptotic endothelial cells are identified by yellow fluorescence within the nuclei.

| SMILES | Tumor weight (g) Median [1] [g] | Endothelial cells CD31 (mean vessel density) (Endothelial cells) | expression level of EGF, VEGF, PDGF-BB, EGFR, VEGFR, and PDGFR by the tumor cells or in the stroma cells [2] | Tumor cells PCNA (number of PCNA-positive cells) [3] | Endothelial cells TUNEL+ (%) [4] | effect on tumor growth (in words) ([1]; L3.6pl implanted in the pancreas of nude mice, each drug 50 mg/kg) | Endothelial cells CD31 (mean vessel density) (Endothelial cells; listed as gemcitabine) | Tumor cells PCNA (number of PCNA-positive cells) ([3]; listed as gemcitabine) |
| --- | --- | --- | --- | --- | --- | --- | --- | --- |
| CCN1CCN(Cc2ccc(-c3cc4c(N[C@H](C)c5ccccc5)ncnc4[nH]3)cc2)CC1 [AEE788] | 0.33 | 25 ± 5^d | do not alter the expression level | 233 ± 54^e | 3 ± 3^e % | – | – | – |
| Nc1ccn([C@@H]2O[C@H](CO)[C@@H](O)C2(F)F)c(=O)n1 [Gemcitabine] | 0.78 | 38 ± 7 | do not alter the expression level | 305 ± 71 | 1 ± 1% | does not inhibit tumor growth | does not decrease MVD | decreases the number of dividing PCNA-positive cells |
